Consider 11 compounds from US20060041123A1, “Antibacterial agents” (priority 2002, published 2006).

The experiment in a line: Antimicrobial activity assay: whole-cell MIC by broth microdilution (NCCLS M7-A6). The class given is cell-based. Conditions: versus all the organisms named above (S. aureus WCUH29, S. pneumoniae 1629, S. pyogenes CN 10, E. faecalis 2, H. influenzae NEMC1, E. coli 7623, M. catarrhalis Ravasio); read-out: MIC. In a few lines: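 Broth microdilution per NCCLS M7-A6, with serial two-fold compound dilutions from 0.016 to 16 mcg/mL. MIC read as the lowest concentration inhibiting visible growth, using a mirror reader.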
(In general: In broth dilution the organism is exposed to a series of concentrations in liquid medium.)
As to `COc1cc(F)c2ncc(F)c(CCN3CC[C@H](NC(=O)c4ccc5c(n4)NC(=O)CS5)[C@H](F)C3)c2c1.Cl` (single isomer, unassigned; enantiomer 1) [Example 151, cis-N-(1-{2-[3,8-difluoro-6-(methoxy)-4-quinolinyl]ethyl}-3-fluoro-4-piperidinyl)-3-oxo-3,4-dihydro-2H-pyrido[3,2-b][1,4]thiazine-6-carboxamide hydrochloride Enantiomer 1], the MIC was not above 2 µg/mL.
With `COc1ccc2ncc(F)c(CCN3CCC(C)(NCc4ccc5c(n4)NC(=O)CO5)CC3)c2n1.Cl.Cl` [Example 138, 6-{[(1-{2-[3-fluoro-6-(methoxy)-1,5-naphthyridin-4-yl]ethyl}-4-methyl-4-piperidinyl)amino]methyl}-2H-pyrido[3,2-b][1,4]oxazin-3(4H)-one dihydrochloride], the MIC was not above 2 µg/mL.
With `COc1ccc2ncc(F)c(CCN3CC[C@H](NCc4cc5c(cn4)OCCO5)[C@H](O)C3)c2c1.Cl.Cl.Cl.Cl` (single isomer, unassigned; enantiomer 1) [Example 34, cis-4-[(2,3-Dihydro-[1,4]dioxino[2,3-c]pyridin-7-ylmethyl)-amino]-1-[2-(3-fluoro-6-methoxy-quinolin-4-yl)-ethyl]-piperidin-3-ol dihydrochloride dihydrochloride Enantiomer 1], the MIC was not above 2 µg/mL.
With `COc1cc(F)c2ncc(F)c(CCN3CC[C@H](NCc4cnc5c(c4)NC(=O)CS5)[C@H](O)C3)c2c1.Cl.Cl` (single isomer, unassigned; enantiomer 1) [Example 72] the figure was not above 2 µg/mL; with `COc1ccc2ncc(F)c(CCN3CCC(NC(=O)c4nc5c(cc4F)SCC(=O)N5)CC3)c2n1.Cl.Cl` [Example 62, 7-Fluoro-N-(1-{2-[3-fluoro-6-(methoxy)-1,5-naphthyridin-4-yl]ethyl}-4-piperidinyl)-3-oxo-3,4-dihydro-2H-pyrido[3,2-b][1,4]thiazine-6-carboxamide dihydrochloride], not above 2 µg/mL; with `COc1cc(F)c2ncc(Cl)c(CCN3CC[C@H](NCc4ccc5c(n4)NC(=O)CS5)[C@H](F)C3)c2c1.Cl.Cl` (single isomer, unassigned; enantiomer 1) [Example 142, cis-6-{[(1-{2-[3-chloro-8-fluoro-6-(methoxy)-4-quinolinyl]ethyl}-3-fluoro-4-piperidinyl)amino]methyl}-2H-pyrido[3,2-b][1,4]thiazin-3(4H)-one dihydrochloride Enantiomer 1], not above 2 µg/mL.
Consider `COc1ccc2ncc(F)c(CCN3CC[C@H](NCc4cc5c(cn4)OCCO5)[C@H](O)C3)c2n1.Cl.Cl` (single isomer, unassigned; enantiomer 1) [Example 66], for which the MIC was not above 2 µg/mL.
With `COc1ccc2ncc(F)c(CCN3CCC(NCc4cc5c(nn4)SCC(=O)N5)CC3)c2n1.Cl.Cl` [Example 58, 3-{[(1-{2-[3-fluoro-6-(methoxy)-1,5-naphthyridin-4-yl]ethyl}-4-piperidinyl)amino]methyl}-5H-pyridazino[3,4-b][1,4]thiazin-6(7H)-one dihydrochloride], the MIC is not above 2 µg/mL.
Turning to `COc1ccc2ncc(F)c(CCN3CCC(C)(NC(=O)c4ccc5c(n4)NC(=O)CS5)CC3)c2n1` [Example 168, N-(1-{2-[3-fluoro-6-(methoxy)-1,5-naphthyridin-4-yl]ethyl}-4-methyl-4-piperidinyl)-3-oxo-3,4-dihydro-2H-pyrido[3,2-b][1,4]thiazine-6-carboxamide], the MIC is not above 2 µg/mL.
Regarding `COc1ccc2ncc(F)c(CCN3CCC(C)(NCc4cc5c(cn4)OCCO5)CC3)c2n1.Cl.Cl` [Example 140, N-(2,3-dihydro[1,4]dioxino[2,3-c]pyridin-7-ylmethyl)-1-{2-[3-fluoro-6-(methoxy)-1,5-naphthyridin-4-yl]ethyl}-4-methyl-4-piperidinamine dihydrochloride], the MIC is not above 2 µg/mL.
The figure for `Cl.Cl.Clc1cnc2ccc3c(c2c1CCN1CCC(NCc2cc4c(cn2)OCCO4)CC1)OCCO3` [Example 52, {1-[2-(9-Chloro-2,3-dihydro-[1,4]dioxino[2,3-f]quinolin-10-yl)-ethyl]-piperidin-4-yl}-(2,3-dihydro-[1,4]dioxino[2,3-c]pyridin-7-ylmethyl)-amine dihydrochloride] is not above 2 µg/mL.
